Laboratory results: patent US8927570B2, “1-naphthyl-or 1-dihydroacenaphthenyl-pyrido[B]indoles and uses thereof in treating cancers” (priority 2009, dated 2015)

Assays:
[1] = tested on: MCF-7 breast cancer cell line; assay: In vitro antiproliferative activity, MCF-7 breast cancer cell line; type: cell-based, human; conditions: Homo sapiens, MCF7, Table 2
Description: (§1) Substituted β-carbolines and analog compounds 39 to 57 were tested for antiproliferative activity against HPAC, Mia-PaCa2 and Panc-1 pancreatic cancer cell lines and MCF-7 and MDA-MB-468 breast cancer cell lines. Table 2 lists the IC50 values for the substituted β-carbolines and analogs thereof.

[2] = tested on: Mia-PaCa2 pancreatic cancer cell line; assay: In vitro antiproliferative activity, Mia-PaCa2 pancreatic cancer cell line; type: cell-based; conditions: Homo sapiens, MIA PaCa-2, Table 2
Description: (§2) Substituted β-carboline compounds 4 to 38 were tested for antiproliferative activity against HCT116 colon cancer cells and HPAC, Mia-PaCa2 and Panc-1 pancreatic cancer cell lines. Table 1 lists the IC50 values for the substituted β-carbolines.
as §1

[3] = tested on: Panc-1 pancreatic cancer cell line; assay: In vitro antiproliferative activity, Panc-1 pancreatic cancer cell line; type: cell-based, human; conditions: Homo sapiens, Table 2
Description: as §1

[4] = tested on: HPAC pancreatic cancer cell line; assay: In vitro antiproliferative activity, HPAC pancreatic cancer cell line; type: cell-based; conditions: Homo sapiens, Table 2
Description: as §2, §1

[5] = tested on: MDA-MB-468 breast cancer cell line; assay: In vitro antiproliferative activity, MDA-MB-468 breast cancer cell line; type: cell-based, human; conditions: Homo sapiens, Table 2
Description: as §1

| IC50 [1] | IC50 [2] | IC50 [3] | IC50 [4] | IC50 [5] | Compound |
| --- | --- | --- | --- | --- | --- |
| > 50 µM | 41.7 µM | > 50 µM | > 50 µM | > 50 µM | Cc1ccc2[nH]c3c(-c4cccc5c(Br)cccc45)nccc3c2c1 [Compound 46, 1-(5-bromonaphthalen-1-yl)-6-methyl-9H-pyrido[3,4-b]indole] |
| 48.6 µM | 13.5 µM | > 50 µM | 50 µM | 6.05 µM | Clc1ccc2sc3c(-c4cccc5ccccc45)nccc3c2c1 [Compound 48, 6-Chloro-1-(naphthalen-1-yl)benzo[4,5]thieno[2,3-c]pyridine] |
| > 50 µM | 33.6 µM | > 50 µM | > 50 µM | 50 µM | c1ccc2c(-c3nccc4c3oc3ccccc34)cccc2c1 [Compound 49, 1-(naphthalen-1-yl)benzofuro[2,3-c]pyridine] |
| > 50 µM | > 50 µM | > 50 µM | > 50 µM | 14.7 µM | c1ccc2c(-c3nccc4c3sc3ccccc34)cccc2c1 [Compound 50, 1-(Naphthalen-1-yl)benzo[4,5]thieno[2,3-c]pyridine] |
| 6.78 µM | 13.1 µM | > 50 µM | > 50 µM | 6.54 µM | Cc1ccc2[nH]c3c(-c4cccc5ccccc45)nccc3c2c1 [Compound 51, 6-Methyl-1-(naphthalen-1-yl)-9H-pyrido[3,4-b]indole] |
| 7.61 µM | 8.63 µM | > 50 µM | 35.5 µM | 4.99 µM | FC(F)(F)Oc1ccc2[nH]c3c(-c4cccc5ccccc45)nccc3c2c1 [Compound 52, 1-(Naphthalen-1-yl)-6-(trifluoromethoxy)-9H-pyrido[3,4-b]indole] |
| > 50 µM | 40.4 µM | > 50 µM | 50 µM | 30.2 µM | N#Cc1ccc2[nH]c3c(-c4cccc5ccccc45)nccc3c2c1 [Compound 53, 1-(Naphthalen-1-yl)-9H-pyrido[3,4-b]indole-6-carbonitrile] |
| 11.4 µM | 26.2 µM | 30.3 µM | 10.9 µM | 5.09 µM | Brc1ccc2[nH]c3c(-c4cccc5ccccc45)nccc3c2c1 [Compound 54, 6-Bromo-1-(naphthalen-1-yl)-9H-pyrido[3,4-b]indole] |
| 17.6 µM | 17.5 µM | 23.3 µM | 12.9 µM | 5.67 µM | CCOC(=O)c1cc2c([nH]c3ccc(OC)cc32)c(-c2cccc3ccccc23)n1 [Compound 55, Ethyl-6-methoxy-1-(naphthalen-1-yl)-9H-pyrido[3,4-b]indole-3-carboxylate] |
| 50.8 µM | 37.4 µM | 33.9 µM | 21.2 µM | 14.2 µM | Cn1c2ccccc2c2ccnc(-c3cccc4ccccc34)c21 [Compound 56, 9-Methyl-1-(naphthalen-1-yl)-9H-pyrido[3,4-b]indole] |
| 52 µM | 34 µM | 41.3 µM | 44.2 µM | 17.8 µM | COc1ccc2c(c1)c1ccnc(-c3cccc4ccccc34)c1n2C [Compound 57, 6-Methoxy-9-methyl-1-(naphthalen-1-yl)-9H-pyrido[3,4-b]indole] |
